US10988433B2, “Cyclohexyl GPR40 agonists for the treatment of type II diabetes” (Janssen Pharmaceutica NV, priority 2016, dated 2021)
pEC50: −log10 of the molar value.

How the values were obtained:
human GPR40 = molecular target: T1, human GPR40 (Homo sapiens, UniProt O14842); test: GPR40 calcium flux assay, HEK293 cells stably expressing human GPR40; format: cell-based; details: transfected HEK293 cells stably expressing human GPR40, Fluo 8 dye, read-out: hGPR40 Ca2+ Assay EC50
T1 construct: expressed in transfected cells
Procedure: (§1) Compounds were tested in a calcium flux assay using transfected HEK293 cells stably expressing either human GPR40 or rat GPR40. Human GPR40 expressing cells were cultured in DMEM-High Glucose media supplemented with 10% fetal bovine serum, 1×L-Glutamine, 1×Penicillin/Streptomycin and 500 μg/mL G418. Rat GPR40 expressing cells were cultured in DMEM-High Glucose media supplemented with 10% fetal bovine serum and 1 μg/mL puromycin. Cells were plated into poly-D-lysine coated 384-well plates and cultured overnight in a 37° C. humidified tissue culture incubator under 5% CO2/[…] atmosphere. On the day of the experiment, the culture media was replaced with assay buffer (HBSS, 20 mM HEPES, 0.1% BSA) and the cells incubated at 37° C. for 1 h. Calcium-sensitive fluorescent dye (Fluo 8 No-Wash Calcium Dye, ABD Bioquest) was then added and the cells incubated for another 30 min at 37° C. followed by 15 min at room temperature while protected from the light. The cell plate and a plate of diluted compounds of Formula (I) were loaded into a fluorescent plate reader that added compounds onto the cells while measuring the fluorescence intensity of each well. The plate reader recorded fluorescence intensity at 1 second intervals for 8 min and provided the data for analysis in an Excel format. EC50 values were calculated using Prism (GraphPad) software.

Male SD rats = test: Oral Glucose Tolerance Test, Version A; format: in vivo, rat; details: Assay Version A: fasted male SD rats, dosed 30 min prior to oGTT (glucose 2 g/kg po); blood glucose AUC t=0 to 120 min vs vehicle
Procedure: Male SD rats (200-250 g) were housed 2 per cage in a temperature-controlled room with a 12-hour light/dark cycle. They were allowed ad libitum access to water and fed with normal rodent chow. The night before the oral glucose tolerance test (oGTT), the rats were transferred to clean cages and fasted overnight. On the morning of the oGTT, the rats were weighed and randomized into groups based on fasted blood glucose and body weight. Rats were dosed with vehicle (0.5% methocel) or compounds thirty min prior to the oGTT (glucose, 2 g/kg, po). Blood was collected from the tail vein at 0, 10, 30, 60 and 120 minutes after glucose challenge to measure blood glucose; plasma was used to determine insulin levels. The area under the curve for blood glucose excursion was calculated from t=0 to t=120 minutes. Percent lowering of glucose was calculated from the AUC data with respect to the vehicle-treated group.

rat GPR40 = molecular target: T2, rat GPR40 (Rattus norvegicus, UniProt Q8K3T4); test: GPR40 calcium flux assay, HEK293 cells stably expressing rat GPR40; format: cell-based; details: transfected HEK293 cells stably expressing rat GPR40, Fluo 8 dye, read-out: rGPR40 Ca2+ Assay EC50
T2 construct: expressed in transfected cells
Procedure: as §1

T1 sequence (O14842 whole entry): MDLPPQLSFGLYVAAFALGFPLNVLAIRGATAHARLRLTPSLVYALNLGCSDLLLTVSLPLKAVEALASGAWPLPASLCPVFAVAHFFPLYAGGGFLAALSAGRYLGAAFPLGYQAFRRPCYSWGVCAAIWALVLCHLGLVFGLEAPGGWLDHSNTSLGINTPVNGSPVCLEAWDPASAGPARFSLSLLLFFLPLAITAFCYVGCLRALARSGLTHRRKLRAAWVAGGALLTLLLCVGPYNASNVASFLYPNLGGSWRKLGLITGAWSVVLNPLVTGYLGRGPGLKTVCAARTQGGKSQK
T2 sequence (Q8K3T4 whole entry): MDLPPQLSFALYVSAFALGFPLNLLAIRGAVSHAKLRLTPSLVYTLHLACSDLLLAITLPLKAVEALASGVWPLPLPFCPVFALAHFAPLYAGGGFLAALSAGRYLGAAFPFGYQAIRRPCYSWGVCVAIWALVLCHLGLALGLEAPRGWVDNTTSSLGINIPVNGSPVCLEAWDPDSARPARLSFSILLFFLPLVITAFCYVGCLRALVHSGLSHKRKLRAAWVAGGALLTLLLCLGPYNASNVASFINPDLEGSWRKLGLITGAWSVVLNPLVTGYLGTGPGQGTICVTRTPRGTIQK

Row | SMILES | pEC50 (human GPR40) | Percent Lowering of Glucose (AUC compound vs. AUC Vehicle) (Male SD rats) | pEC50 (rat GPR40)
1 | COc1ccc(F)c([C@H]2CC[C@H](COc3cccc([C@@H](CC(=O)O)C4CC4)c3)CC2)c1 [Cpd 2, (S)-3-Cyclopropyl-3-(3-(((1r,4 S)-4-(2-fluoro-5-methoxyphenyl)cyclohexyl)methoxy)phenyl) propanoic acid] | 9.10 | 33% | 8.47
2 | COc1ccc(F)c([C@H]2CC[C@@H](COc3cccc([C@@H](CC(=O)O)C4CC4)c3)CC2)c1 [Cpd 1, (S)-3-Cyclopropyl-3-(3-(((1s,4R)-4-(2-fluoro-5-methoxyphenyl)cyclohexyl)methoxy)phenyl) propanoic acid] | 7.44 | 11% | 6.98
3 | COc1ccc(F)c([C@H]2CC[C@H](COc3cc([C@@H](CC(=O)O)C4CC4)ccn3)CC2)c1 [Cpd 27, (S)-3-Cyclopropyl-3-(2-(((1r,4s)-4-(2-fluoro-5-methoxyphenyl)cyclohexyl)methoxy)pyridin-4-yl)propanoic acid] | 9.70 | 32% | 9.05
4 | COc1ccc(F)c([C@H]2CC[C@H](CCc3cccc([C@@H](CC(=O)O)C4CC4)c3)CC2)c1 [Cpd 36, (S)-3-Cyclopropyl-3-(3-(2-((1r,4R)-4-(2-fluoro-5-methoxyphenyl)cyclohexyl)ethyl)phenyl) propanoic acid] | 8.77 |  | 8.04
5 | COc1cc([C@H]2CC[C@H](COc3cccc([C@H](C4CC4)C(C)(F)C(=O)O)c3)CC2)c(F)cn1 (some centres unmarked) [Cpd 61] | 9.60 |  | 9.28
6 | COc1cc([C@H]2CC[C@H](COc3cccc([C@H](C4CC4)[C@@](C)(F)C(=O)O)c3)CC2)c(F)cn1 [Cpd 62] | 9.60 |  | 9.25
7 | COc1cc([C@]2(OC)CC[C@H](COc3cc([C@@H](CC(=O)O)C4CC4)ccn3)CC2)c(F)cn1 [Cpd 45, (S)-3-Cyclopropyl-3-(2-(((1r,4S)-4-(5-fluoro-2-methoxypyridin-4-yl)-4-methoxycyclohexyl)methoxy)pyridin-4-yl)propanoic acid] | 6.59 |  | 6.07
8 | COc1cc([C@H]2CC[C@H](COc3cc([C@H](C4CC4)C(C)(F)C(=O)O)ccn3)CC2)c(F)cn1 (stereo partly drawn) [Cpd 80, (3S)-3-Cyclopropyl-2-fluoro-3-(2-(((1r,4S)-4-(5-fluoro-2-methoxypyridin-4-yl)cyclohexyl)methoxy)pyridin-4-yl)-2-methylpropanoic acid] | 7.10 |  | 6.66
9 | COc1cc([C@H]2CC[C@@H](COc3ccnc(C(CC(=O)O)C4CC4)c3)CC2)c(F)cn1 (some centres unmarked) [Cpd 32, 3-Cyclopropyl-3-(4-(((1s,4s)-4-(5-fluoro-2-methoxypyridin-4-yl)cyclohexyl)methoxy)pyridine-2-yl)propanoic acid] | 7.23 |  | 6.59
10 | COc1ccc(F)c(C2CCC(OCc3cccc([C@H](C4CC4)C(C)(F)C(=O)O)c3)CC2)c1 (stereo partly drawn) [Cpd 78, (3S)-3-Cyclopropyl-2-fluoro-3-(3-(((4-(2-fluoro-5-methoxyphenyl)cyclohexyl)oxy)methyl)phenyl)-2-methylpropanoic acid] | 8.66 |  | 8.26
11 | COc1cc(C2CCC(COc3cccc([C@H](C4CC4)C(C)(F)C(=O)O)c3)CC2)ccn1 (mixture of isomers) [Cpd 69, (3S)-3-Cyclopropyl-2-fluoro-3-(3-((4-(2-methoxypyridin-4-yl)cyclohexyl)methoxy)phenyl)-2-methylpropanoic acid] | 8.92 |  | 8.82
12 | COc1ccc(F)c([C@H]2CC[C@@H](COc3cccc([C@H](C4CC4)[C@H](C)C(=O)O)c3)CC2)c1 [Cpd 53, (2S,3R)-3-cyclopropyl-3-(3-(((1s,4S)-4-(2-fluoro-5-methoxyphenyl)cyclohexyl)methoxy)phenyl)-2-methylpropanoic acid] | 8.70 |  | 8.11
13 | COc1cc([C@H]2CC[C@H](COc3cc([C@@H](CC(=O)O)C4CC4)ccn3)CC2)c(F)cn1 [Cpd 25, (S)-3-Cyclopropyl-3-(2-(((1r,4S)-4-(5-fluoro-2-methoxypyridin-4-yl)cyclohexyl)methoxy)pyridin-4-yl)propanoic acid] | 8.28 | 28% | 8.89
14 | COc1ccc(F)c([C@]2(F)CC[C@H](COc3cccc([C@@H](CC(=O)O)C4CC4)c3)CC2)c1 [Cpd 19, (S)-3-Cyclopropyl-3-(3-(((1r,4S)-4-fluoro-4-(2-fluoro-5-methoxyphenyl)cyclohexyl)methoxy)phenyl)propanoic acid] | 7.08 |  | 6.68
15 | CCc1ccc(F)c([C@H]2CC[C@H](COc3cccc([C@H](C4CC4)C(C)(F)C(=O)O)c3)CC2)c1 (stereo partly drawn) [Cpd 68, (3S)-3-Cyclopropyl-3-(3-(((1r,4S)-4-(5-ethyl-2-fluorophenyl)cyclohexyl)methoxy)phenyl)-2-fluoro-2-methylpropanoic acid] | 9.57 |  | 8.65
16 | COc1ccc(F)c([C@H]2CC[C@H](/C=C/c3cccc([C@H](C4CC4)C(C)(F)C(=O)O)c3)CC2)c1 (stereo partly drawn) [Cpd 72, (3S)-3-Cyclopropyl-2-fluoro-3-(3-((E)-2-((1r,4S)-4-(2-fluoro-5-methoxyphenyl)cyclohexyl)vinyl)phenyl)-2-methylpropanoic acid] | 8.73 |  | 8.61
17 | CC(F)(C(=O)O)[C@H](c1cccc(OCC2CCC(c3cc(F)ncc3F)CC2)c1)C1CC1 (mixture of isomers) [Cpd 67, (3S)-3-Cyclopropyl-3-(3-((4-(2,5-difluoropyridin-4-yl)cyclohexyl)methoxy)phenyl)-2-fluoro-2-methylpropanoic acid] | 8.77 |  | 7.92
18 | COc1ccc(F)c([C@H]2CC[C@H](COc3cncc(C(CC(=O)O)C4CC4)c3)CC2)c1 (some centres unmarked) [Cpd 21, 3-Cyclopropyl-3-(5-(((1r,4r)-4-(2-fluoro-5-methoxyphenyl)cyclohexyl)methoxy)pyridin-3-yl)propanoic acid] | 7.92 |  | 7.45
19 | COc1cc([C@]2(OC)CC[C@@H](COc3cc([C@@H](CC(=O)O)C4CC4)ccn3)CC2)c(F)cn1 [Cpd 44, (S)-3-cyclopropyl-3-(2-(((1s,4R)-4-(5-fluoro-2-methoxypyridin-4-yl)-4-methoxycyclohexyl)methoxy)pyridin-4-yl) propanoic acid] | 8.00 |  | 7.54
20 | COc1ccc(F)c([C@H]2CC[C@@H](CNc3cccc([C@@H](CC(=O)O)C4CC4)c3)CC2)c1 [Cpd 47, (S)-3-cyclopropyl-3-(3-((((1s,4R)-4-(2-fluoro-5-methoxyphenyl)cyclohexyl)methyl)amino)phenyl)propanoic acid] | 7.15 |  | 6.83
21 | COc1cc([C@H]2CC[C@H](COc3cccc([C@H](C4CC4)[C@](C)(F)C(=O)O)c3)CC2)c(F)cn1 [Cpd 63] | 7.49 |  | 7.06
22 | COc1ccc(F)c(C2CCC(COc3cccc([C@H](C4CC4)C(F)C(=O)O)c3)CC2)c1 (stereo partly drawn) [Cpd 54, (3S)-3-Cyclopropyl-2-fluoro-3-(3-(((1r,4S)-4-(2-fluoro-5-methoxyphenyl)cyclohexyl)methoxy)phenyl)propanoic acid] | 9.30 |  | 8.85
23 | COc1cc([C@H]2CC[C@H](COc3cc([C@H](CC(=O)O)C4CC4)ccn3)CC2)c(F)cn1 [Cpd 24, (R)-3-Cyclopropyl-3-(2-(((1r,4R)-4-(5-fluoro-2-methoxypyridin-4-yl)cyclohexyl)methoxy)pyridin-4-yl)propanoic acid] | 8.08 |  | 7.68
